Data taken from patent publication US4337249A, “Modulators of the complement system” (American Cyanamid Company, priority 1981, dated 1982).
Structures can show the parent of a compound that is named as a salt.

What was measured:
activated human C1 = molecular target: T1, activated human C1 (Homo sapiens, UniProt P09871); experiment: Test Code 026 (C1 inhibitor); type: biochemical; conditions: serial twofold dilution assay; higher well number indicates higher activity; protection of human C2 from C1 in presence of C4
T1 sequence (P09871 438-688 limits assumed): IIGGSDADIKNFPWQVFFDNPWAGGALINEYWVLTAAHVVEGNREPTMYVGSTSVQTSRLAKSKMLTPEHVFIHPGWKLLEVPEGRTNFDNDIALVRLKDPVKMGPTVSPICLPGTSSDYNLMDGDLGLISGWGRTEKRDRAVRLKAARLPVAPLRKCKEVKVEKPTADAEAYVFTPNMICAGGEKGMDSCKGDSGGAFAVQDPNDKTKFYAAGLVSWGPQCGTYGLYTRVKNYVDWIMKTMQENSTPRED
T1 sequence (P09871 16-437 limits assumed): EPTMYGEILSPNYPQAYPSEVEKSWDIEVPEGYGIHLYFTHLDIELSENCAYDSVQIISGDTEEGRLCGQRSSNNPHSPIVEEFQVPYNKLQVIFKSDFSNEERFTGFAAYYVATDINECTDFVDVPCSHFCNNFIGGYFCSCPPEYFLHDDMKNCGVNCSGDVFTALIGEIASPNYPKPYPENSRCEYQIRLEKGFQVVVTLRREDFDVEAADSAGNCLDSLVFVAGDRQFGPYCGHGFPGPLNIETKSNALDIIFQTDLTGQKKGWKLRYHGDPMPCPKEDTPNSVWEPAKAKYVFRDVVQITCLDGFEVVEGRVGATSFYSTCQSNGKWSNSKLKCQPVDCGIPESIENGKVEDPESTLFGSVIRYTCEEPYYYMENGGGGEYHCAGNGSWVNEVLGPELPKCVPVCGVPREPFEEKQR
Protocol: (§1) An active inhibitor protects C2 from C1 and C4; (ii) Cap 50 Test Here, appropriate amounts of the test compound are added to a pool of guinea pig serum in vitro, after which the undiluted serum capillary tube assay of U.S. Pat. No. 3,876,376 is run. The concentration of compound inhibiting 50% is reported; and (iii) Guinea Pig Intraperitoneal Test (GPIP)--Guinea pigs weighing about 300 g are dosed intraperitoneally (i.p.) with 200 mg kg of the test compound dissolved in saline and adjusted to pH 7-8. Approximately 0.4 ml blood samples, taken by orbital sinus puncture 2 hours and 6 hours after injections, are collected directly into centrifuge tubes; 5 ml blood samples, taken by decapitation 24 hours after injection, are collected directly into beakers. The samples are allowed to clot, centrifuged, and the resultant sera are assayed for complement activity using the capillary complement assay. Percent inhibition are calculated by comparison with simultaneous controls. The results of the GPIP appear in Table I together with results of Test Code 026 and Cap 50.

[1] = test system: serum complement activity; experiment: Guinea Pig Intraperitoneal Test (GPIP); type: in vivo; conditions: 200 mg kg i.p., versus simultaneous controls
Protocol: as §1

[2] = test system: complement in pool of guinea pig serum; experiment: Cap 50 Test (undiluted serum capillary tube assay); type: biochemical
Protocol: as §1

In vitro Activity C1 026 Wells (activated human C1): 8 (9) Wells
Compound: O=C(C=Cc1ccc(OS(=O)(=O)O)c(OS(=O)(=O)O)c1)N[C@@H]1O[C@H](COS(=O)(=O)O)[C@@H](O[C@H]2O[C@H](COS(=O)(=O)O)[C@@H](OS(=O)(=O)O)[C@H](OS(=O)(=O)O)[C@H]2OS(=O)(=O)O)[C@H](OS(=O)(=O)O)[C@H]1OS(=O)(=O)O [N-(4-O-α-D-Glucopyranosyl-β-D-glucopyranosyl)-3,4-dihydroxycinnamamide, nonakis (H-sulfate), (nonaester), nonasodium salt]
In vivo Activity (Guinea pig % Inhibition) Intraperitoneal, 2 hours ([1]; serum 2 hours after injection): 63 % Inhibition | In vivo Activity (Guinea pig % Inhibition) Intraperitoneal, 6 hours ([1]; serum 6 hours after injection): 17 % Inhibition | In vivo Activity (Guinea pig % Inhibition) Intraperitoneal, 24 hours ([1]; serum 24 hours after injection): 2 % Inhibition | In vitro Activity Cap 50 (concentration of compound inhibiting 50%) [2]: 304
